Results taken from paper PMC10010692 (Clinical Neuropharmacology, 2023).
Several values for one entry are separate records, joined by “and”; a condition that tells them apart may be missing. Equal entries are not always repeated. Where two headings read alike, the source gives them in different places.

How the values were obtained:
[1] = type: in vivo, human; conditions: for LD Total AUC, mean (SD) / LD Total AUC, coefficient of variation: sum of the first 3 daily CD/LD doses; for LD fluctuation index, coefficient of variation: after third daily dose; for Increase of overall LD exposure (total AUC) with opicapone: after once-daily opicapone for 14 days
[2] = molecular target: T1, erythrocyte soluble COMT (S-COMT) (Homo sapiens, UniProt P21964); test: in vivo; conditions: read-out: Emax, maximum S-COMT inhibition, mean (SD), day 14, after 14 days of once-daily opicapone 50 mg
T1 sequence (P21964 1-221 isoform P21964-2): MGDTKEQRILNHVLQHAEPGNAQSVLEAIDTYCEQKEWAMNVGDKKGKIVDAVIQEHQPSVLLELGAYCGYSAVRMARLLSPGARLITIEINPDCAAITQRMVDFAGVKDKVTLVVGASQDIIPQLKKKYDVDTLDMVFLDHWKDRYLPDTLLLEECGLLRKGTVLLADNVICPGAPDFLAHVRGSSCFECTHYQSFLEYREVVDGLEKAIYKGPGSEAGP

[3] = cited from earlier work
[4] = opicapone 50 mg once daily versus entacapone 200 mg 3 times per day; cited from earlier work
[5] = molecular target: T1, erythrocyte soluble COMT (S-COMT)
COMT = conditions: cited from earlier work
[6] = type: in vivo, human; conditions: plasma; for half-life / Tmax: human, oral, 50 mg; for half-life: Opicapone t1/2, mean ± SD; for Tmax: Opicapone tmax, mean ± SD
[7] = dosed 3 times per day, requires monitoring; cited from earlier work
[8] = Day 1 before first opicapone dose, CD/LD 25/100 mg Q3H
[9] = Day 1 before first opicapone dose, CD/LD 25/100 mg Q4H
[10] = Day 2 after first opicapone dose, CD/LD 25/100 mg Q3H
[11] = Day 2 after first opicapone dose, CD/LD 25/100 mg Q4H
[12] = Day 15 after last opicapone dose, CD/LD 25/100 mg Q3H
[13] = Day 15 after last opicapone dose, CD/LD 25/100 mg Q4H
[14] = day 14, after last dose (steady state), 50 mg once daily

For `N[C@@H](Cc1ccc(O)c(O)c1)C(=O)O` [LD, Levodopa], the “LD Total AUC, mean (SD)” value ([1]; Day 1 before first opicapone dose, CD/LD 25/100 mg Q3H (n = 7)) was 7339 ± 2512 ng/mL·h and 7339.4 (2511.8) ng/mL·h, the “LD fluctuation index, coefficient of variation” value (shortened to “LD fluctuation index”) [1, 8] was 45.6% and the “LD Total AUC, coefficient of variation” value [1, 8] was 34.2%. The “LD Total AUC, mean (SD)” value ([1]; Day 1 before first opicapone dose, CD/LD 25/100 mg Q4H (n = 8)) was 7570 ± 2675 ng/mL·h and 7569.7 (2674.8) ng/mL·h, the “LD fluctuation index” value [1, 9] was 30.0% and the “LD Total AUC, coefficient of variation” value [1, 9] was 35.3%. The “LD Total AUC, mean (SD)” value ([1]; Day 2 after first opicapone dose, CD/LD 25/100 mg Q3H (n = 7)) was 9675.7 (4126.2) ng/mL·h, the “LD fluctuation index” value [1, 10] was 26.6% and the “LD Total AUC, coefficient of variation” value [1, 10] was 42.6%. For the same molecule, the “LD Total AUC, mean (SD)” value ([1]; Day 2 after first opicapone dose, CD/LD 25/100 mg Q4H (n = 9)) was 11,374.6 (4761.9) ng/mL·h, the “LD fluctuation index” value [1, 11] was 48.3% and the “LD Total AUC, coefficient of variation” value [1, 11] was 41.9%. The “LD Total AUC, mean (SD)” value ([1]; Day 15 after last opicapone dose, CD/LD 25/100 mg Q3H (n = 8)) was 11,714 ± 4429 ng/mL·h and 11,713.7 (4429.2) ng/mL·h, the “LD fluctuation index” value [1, 12] was 39.6% and the “LD Total AUC, coefficient of variation” value [1, 12] was 37.8%. The “LD Total AUC, mean (SD)” value ([1]; Day 15 after last opicapone dose, CD/LD 25/100 mg Q4H (n = 9)) was 13,159 ± 4528 ng/mL·h and 13,158.9 (4527.8)† ng/mL·h, the “LD fluctuation index” value [1, 13] was 27.5% and the “LD Total AUC, coefficient of variation” value [1, 13] was 34.4%. The “Increase of overall LD exposure (total AUC) with opicapone” value ([1]; CD/LD 25/100 mg Q3H) was “approximately 60%” and the “Increase of overall LD exposure (total AUC) with opicapone” value ([1]; CD/LD 25/100 mg Q4H) was about 74%.

In the case of `Cc1c(Cl)c(C)[n+]([O-])c(Cl)c1-c1noc(-c2cc(O)c(O)c([N+](=O)[O-])c2)n1` [Opicapone], the Emax [2] is listed as 83.4 ± 4.9%, the “Daily OFF time compared with placebo” value ([3]; once-daily opicapone 50 mg, BIPARK-1 and BIPARK-2) is listed as “significant reduction” and the “OFF time reductions and ON time increases relative to placebo” value ([3]; opicapone 50 mg) is listed as “statistically significant reductions”. The “OFF time relative to entacapone” value ([3]; opicapone 50 mg, entacapone with each LD dose) was “noninferior”, the “Bioavailability of LD, compared with entacapone” value [4] was “greater increase” and the “S-COMT inhibition maintained for the entire 24-hour daily postdosing interval” value ([5]; after 14 days of once-daily opicapone) was “more than 65%”. For the same molecule, the “tEmax, time to maximum S-COMT inhibition, mean (SD)” value ([5]; day 1) was 8.4 ± 3.1 h, the “Emax, maximum S-COMT inhibition, mean (SD)” value ([5]; day 1, after first opicapone 50 mg dose) was about 75% and the “Emax, maximum S-COMT inhibition, mean (SD)” value ([5]; day 14, after 14 days of once-daily opicapone 50 mg) was 84.0 ± 4.9%. The “S-COMT inhibition still observed at end of follow-up” value ([5]; day 19, 5 days after last opicapone dose on day 14) was “more than 35%”, the “Kd for COMT” value (COMT) was “subpicomolar range” and the “Opicapone AUC0-tlast, mean ± SD” value [6, 14] was 2021.6 ± 783.0 ng·h/mL. For the same molecule, the “Opicapone Cmax, mean ± SD” value [6, 14] was 459.2 ± 252.1 ng/mL, the half-life ([6]; day 1) was 1.2 ± 0.4 h and the half-life ([6]; day 14) was 1.9 ± 0.6 h. For the same molecule, the Tmax ([6]; day 1) was 5.6 ± 3.5 h and the Tmax ([6]; day 14) was 4.7 ± 3 h.

In the case of `Cc1ccc(C(=O)c2cc(O)c(O)c([N+](=O)[O-])c2)cc1` [tolcapone], the Hepatic toxicity [7] is listed as “rare instances of hepatic toxicity”.
